The values below come from US9879325B2, “Method for predicting the responsiveness a patient to a treatment with an anti-CD20 antibody” (ASSISTANCE PUBLIQUE—HÔPITAUX DE PARIS, priority 2014, dated 2018).

In one experiment the target is T1, GAPDH/TRAF2 interaction (Mus musculus, UniProt P16858).
T1 construct: from tissue; lymph node tumors are collected elsewhere in the text
In words: GAPDH/TRAF2 co-immunoprecipitation in tissues of Eμ-Myc bearing mice. The format is in vivo. To be noted: 24 hours after treatment. As for the experimental part:
Consequently, we investigated GAPDH-TRAF2 binding in Eμ-Myc and HeLa cells and evidenced that GAPDH could be co-immunprecipitated with TRAF2 when cells are cultured in hypoxia. […] We further tested this interaction in vivo. For that matter Eμ-Myc bearing mice were treated once with PBS or with the covalent inhibitor koningic acid (i.p) and GAPDH/TRAF2 interaction was investigated by co-immunoprecipation in tissues, 24 hours after treatment. […] Protein G Sepharose 4B beads (Invitrogen, CA, USA) were first incubated with rabbit anti-TRAF2 or mouse anti-GAPDH antibody or IgG control (Santacruz, Calif., USA) for 4 hours at 4° C. Beads were then incubated overnight with 1 mg of precleared protein lysed in 20 mM Tris-HCl, pH 7.4, 137 mM NaCl, 1 mM EGTA, 10% glycerol, 1% Triton X-100, 1.5 mM MgCl2, 1 μg/μl PMSF, protease and phosphatase inhibitor cocktail (Thermo Scientific). Samples were then washed five times, boiled in Laemmli buffer and analyzed by immunoblotting with the indicated antibodies

Experiment [1] relates to NF-κB. In words: NF-κB activity luciferase assay. The format is cell-based. On the procedure:
HeLa cells stably expressing GAPDH-V5 or GAPDH double mutant (DM-V5) control (pMIG) were transiently co-transfected by the classical calcium phosphate method with 0.5 μg of a vector encoding cFP and 2 μg of a luciferase reporter gene controlled by a minimal tk promoter ans sex reiterated KB sites (icBx6 tk luc). Forty-eight hours after transfection, cells were exposed to either normoxia or hypoxia 1% O2 for 24 hours before harvesting and analyzing as previously described (Bottero et al., 2003).

Experiment [2] has as its system NF-κB. The experiment can be described thus: Electrophoretic mobility shift assay (EMSA) of NF-κB binding in Raji cells. The format is cell-based, human. To be noted: hypoxia 1% O2 24 hours, 0.2 μg/ml. On the procedure: Total cell extracts from Raji cells treated or not with 0.2 μg/ml of KA and exposed to normoxia or hypoxia 1% O2 for 24 hours were prepared as previously described (Bottero et al., 2003). For mobility shift assay, a NF-κB probe consisting of a synthetic double stranded oligonucleotide containing the KB binding site of the Igκ promoter was used. The end-labeled probe (T4 kinase) was incubated with extracts samples for 20 minutes at 30° C. Complexes were separated by electrophoresis on a 5% non-denaturating polyacrylamide gel in 0.5×TBE. Dried gels were subjected to autoradiography.
A general note: A gel shift assay detects complexes by their altered migration in electrophoresis.

A further experiment deals with hif-1α mRNA. The experiment can be described thus: hif-1α mRNA in vivo (qPCR). Also noted: species or system mouse. To be noted: 5 mg/kg. As for the experimental part:
Consequently, we investigated GAPDH-TRAF2 binding in Eμ-Myc and HeLa cells and evidenced that GAPDH could be co-immunprecipitated with TRAF2 when cells are cultured in hypoxia. […] We further tested this interaction in vivo. For that matter Eμ-Myc bearing mice were treated once with PBS or with the covalent inhibitor koningic acid (i.p) and GAPDH/TRAF2 interaction was investigated by co-immunoprecipation in tissues, 24 hours after treatment.
(§1) Total RNA was extracted from cells using the RNA extraction kit (Qiagen) according to the manufacturer's instructions. Total RNA (2 μg) was added to 20 μl reverse transcription-PCR using the Omniscript kit (Qiagen). The relative mRNA expression level of gapdh, hif-1α, ca9, vegf-α, ldh-a (mouse and human) were obtained by real-time quantification PCR (qPCR), using the TaqMan PCR Master Mix (Eurogentec) and TaqMan assay primer set (Applied Biosystems, Foster City, Calif.) on the 7500 Fast and the Step One (Applied Biosystems) according to the manufacturer's instructions (sequences provided upon request). For in vitro experiment, all samples were normalized to rplp0. All mRNA samples from human tumor tissues were normalized by ppia (cyclophilin-a).
(In general: Real-time PCR tracks product formation cycle by cycle.)

The test system of experiment [3] is CD20 cell surface expression. In words: CD20 cell surface expression by flow cytometry in Raji cells. It counts as cell-based, human. To be noted: hypoxia 1% O2 48 h, non-toxic doses (0.1 μg/ml). On the procedure: Cells (0.5·10^6) cells (in triplicate) were washed 1×PBS and incubated at 4° C. with the monoclonal anti-CD20 (Affymetrix eBioscience) at a concentration of 2.5 μg/ml for 45 minutes. IgG isotypic controls were included. Cells were then washed 2×PBS and incubated at 4° C. for 30 minutes in the dark with a anti-mouse Alexa 488 (1 μg/ml). Then cells were washed twice in PBS and resuspend in 100 μl of PBS containing 0.5 μg/ml of DAPI (4′,6-diamidino-2-phenylindole). Ten thousand events were analyzed immediately by flow cytometry using a MACSQuant Analyzer (Miltenyi Biotec). The mean fluorescence intensity (MFI) obtained for lived (DAPI negative) CD20 positive cells was reported. Histograms represent the average of three independent experiments.
A total of 1×10^6 cells were washed in PBS and incubated for 45 minutes at 4° C. with the monoclonal anti-CD20 antibody (2.5 μg/ml) (Affymetrix eBioscience). The cells were then washed in PBS and incubated at 4° C. for 30 minutes with an anti-mouse Alexa Fluor 488 (1 μg/ml). […] After washing twice in the saponine-containing buffer, the cells are resuspended in PBS/2% FCS and analyzed by flow cytometry. Immediately afterwards, 10,000 events were analyzed by flow cytometry using a MACSQuant Analyzer (Miltenyi Biotec). The mean fluorescence intensity (MFI) obtained for CD20-low, CD20-high, GAPDH-low, GAPDH-high cells, was reported.
A general note: A flow cytometer gives signals particle by particle.

The next experiment deals with GAPDH. The experiment can be described thus: Measurement of GAPDH activity. The format is biochemical. To be noted: non-toxic doses. As for the experimental part:
Cells were lysed in a buffer containing 10 mmol/L HEPES (pH 7.4), 150 mmol/L NaCl, 5 mmol/L EDTA, 1% NP40, 10 μg/mL aprotinin, 1 mmol/L phenylmethylsulfonyl fluoride and 10 mmol/L leupeptin (buffer A). Lysates were standardized for protein content and incubated with 0.25 mmol/L NAD, 3.3 mmol/L DTT, 13 mmol/L Na4P2O7 (pH 8.5), 26 mmol/L sodium arsenate, and 25 mmol/L D-glyceraldehyde-3-phosphate in a black 96-well plate (Cellstar). GAPDH activity was measured on a fluoroscan at 445 nm as the increase in fluorescence related to NADH accumulation. Activity is expressed as the change in absorbance per milligram of protein.

The test system of another experiment is HIF-1. The experiment can be described thus: HIF-1 activity luciferase assay. The format is cell-based. Conditions: non-toxic doses; hypoxia. As for the experimental part: HIF-1 activity. HeLa cells stably expressing the p3HRE-Dptk-LUC vector, which contain three copies of the hypoxia-responsive element (HRE) from the erythropoietin gene (Dayan et al., 2006), were transiently transfected (calcium phosphate) with control vector (pMIG or empty pSUPER vector) or vectors (2 μg) to either overexpress or to silence GAPDH. The following day, transfected cells were exposed to normoxia or hypoxia 1% O2 for 24 hours before cell lysis in a reporter lysis buffer (Promega). It is worth noting that for determination of HIF-1 activity in hypoxia, cells were directly lysed in the hypoxic chamber). The luciferase assay was performed as previously described (Jacquin et al., 2013).

In the next experiment the test system is GAPDH-TRAF2 interaction. In words: GAPDH-TRAF2 co-immunoprecipitation in cells cultured in hypoxia. The format is cell-based. Conditions: Eμ-Myc and HeLa cells. On the procedure: Protein G Sepharose 4B beads (Invitrogen, CA, USA) were first incubated with rabbit anti-TRAF2 or mouse anti-GAPDH antibody or IgG control (Santacruz, Calif., USA) for 4 hours at 4° C. Beads were then incubated overnight with 1 mg of precleared protein lysed in 20 mM Tris-HCl, pH 7.4, 137 mM NaCl, 1 mM EGTA, 10% glycerol, 1% Triton X-100, 1.5 mM MgCl2, 1 μg/μl PMSF, protease and phosphatase inhibitor cocktail (Thermo Scientific). Samples were then washed five times, boiled in Laemmli buffer and analyzed by immunoblotting with the indicated antibodies

The test system of a further experiment is HIF-1α. In words: HIF-1α protein expression (Western blot). The format is cell-based. To be noted: non-toxic doses; hypoxia. As for the experimental part:
Briefly, after exposure to normoxia or hypoxia, cells were washed and lysed in laemmli buffer. Cells exposed to hypoxia were lysed in the hypoxic chamber. Proteins (40 μg) were separated on 8% to 12% SDS polyacrilamide gels and transferred onto polyvinylidene difluoride membranes (Millipore). Membranes were then blotted with antibody corresponding to the indicated proteins. Immunoreactive bands were detected with a horseradish peroxidase (HRP) anti-mouse (Dako) or anti-rabbit (Cell Signaling) by enhanced chemiluminescence (Pierce). When indicated, Western blot quantification was made using ImageJ software.

Experiment [4] concerns ms4a1 (CD20 encoding gene). The experiment can be described thus: ms4a1 expression in lymphoma bearing mice. To be noted: in vivo inhibition of GAPDH. Also on record: species or system mouse. On the procedure:
To get deeper into the mechanism of CD20 expression, we observed that upon 24 hours of hypoxia, primary Eμ-Myc cells are showing a 2-fold increase in mRNA level of ms4a1 when compared to normoxia. […] We then confirmed the effects of hypoxia on CD20 cell surface expression using the human Burkitt's lymphoma cell line Raji.
as §1

The test system of a further experiment is DLBCL patients. In words: Overall survival of DLBCL patients by gapdh mRNA level. The format is in vivo, human. An excerpt: Thirteen patients who underwent biopsy for DLBCL between May 2007 and May 2011 at the Saint-Louis Hospital (Department of Onco-hematology, Hopital Saint-Louis, Paris, France) were selected. The patients received the necessary information concerning the study and consent was obtained. Morphologic classification of the tumors was assigned according to the World Health Organization (WHO) criteria (Campo et al., 2011). The tumors extensions were staged according to the Ann Arbor stage, and all patients were scored by IPIaa (project, 1993). Follow-up data for all the patients were collected regularly. Among these patients, 8 relapsed (61.5%) and 6 (46%) died.
Data are expressed as mean±standard deviation (SD). Differences in the calculated mean between each group were analyzed using Fisher test (quantitative variable). Survival functions were estimated by the Kaplan-Meier method and compared by the log-rank test. A P value of 0.05 or less was considered to indicate statistical significance. Kaplan-Meier survival curves and box plot representations were performed using “R” software.
[…] was measured from the date of diagnosis to that of death from any cause or to the stopping date. When the latter date was not reached, the data were censored at the date of the last follow-up evaluation. […]

T1 sequence (P16858 whole entry): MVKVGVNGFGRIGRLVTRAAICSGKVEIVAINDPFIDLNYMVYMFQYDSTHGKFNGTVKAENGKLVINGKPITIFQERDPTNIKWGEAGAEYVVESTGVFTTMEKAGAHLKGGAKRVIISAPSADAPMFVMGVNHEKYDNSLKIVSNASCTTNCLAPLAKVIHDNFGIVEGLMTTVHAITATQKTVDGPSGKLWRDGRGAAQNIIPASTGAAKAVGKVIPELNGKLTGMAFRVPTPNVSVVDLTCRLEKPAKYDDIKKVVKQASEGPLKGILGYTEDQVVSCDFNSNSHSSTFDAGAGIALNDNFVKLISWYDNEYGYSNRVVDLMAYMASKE

Take `CC(C)[C@H]1CC[C@@]2(CO2)[C@H]2C(=O)OCC(C(=O)O)=C[C@H]12` [Koningic acid]: the results for the “GAPDH/TRAF2 interaction in vivo” value at GAPDH/TRAF2 interaction (0.5 mg/kg i.p. once) and on GAPDH/TRAF2 interaction (5 mg/kg i.p. once) were “inactive dose” and “reduced the interaction”, respectively. Moreover, in the experiment on NF-κB [1] (hypoxic HeLa cells), the NF-κB transcriptional activity result was “prevented NF-κB transcriptional activity”. The NF-κB activity result in the experiment with NF-κB [1] (specific and partial inhibition of GAPDH in hypoxia) is recorded as “decreases NF-κB activity”. Besides, the “NF-κB binding to its consensus sequence” value with NF-κB [2] is “reduced its binding in hypoxia”. The “hif-1α mRNA in vivo” value in the experiment with hif-1α mRNA is listed as “reduced hif-1α mRNA”. Moreover, in experiment [3], the “hypoxic-dependent increase in CD20 cell surface expression” value is “prevented this hypoxic-dependent increase in CD20 expression”. In the experiment with GAPDH, the “reduction of GAPDH activity” value is recorded as 50-60%. In the experiment with HIF-1, the HIF-1 activity result is “decrease in HIF-1 activity”. Further, the GAPDH-TRAF2 interaction entry in the experiment on GAPDH-TRAF2 interaction was “loss of GAPDH-TRAF2 interaction”. Besides, the HIF-1α expression entry in the experiment on HIF-1α was “decrease”. Besides, the ms4a1 expression entry in experiment [4] is “reduction in ms4a1 expression”.
Turning to “Rituximab-based chemotherapy: anti-CD20 monoclonal antibody rituximab given with chemotherapy to DLBCL patients upon diagnosis”, the “patients still alive 350 days following the diagnosis” value was determined as 33% in the experiment on DLBCL patients ("low" gapdh group) and 100% in the experiment on DLBCL patients (DLBCL with "high" levels of gapdh mRNA).
